Patent US11419335B2, “N-arylated analogues and uses thereof” (University of Florida Research Foundation, Incorporated, priority 2016, dated 2022)
Marks after values point to notes of the source that are not given here.

Experiments:
[1] = tested on: SA-129 (clinical isolate); assay: MIC broth microdilution, SA-129; type: cell-based, Staphylococcus aureus
Method: (§1) The minimum inhibitory concentration (MIC) for each tested compound was determined by the broth microdilution method as recommended by the Clinical and Laboratory Standards Institute (CLSI). In a 96-well plate, eleven two-fold serial dilutions of each compound were made in a final volume of 100 μL Luria Broth. Each well was inoculated with ˜10^5 bacterial cells at the initial time of incubation, prepared from a fresh log phase culture (OD600 of 0.5 to 1.0 depending on bacterial strain). […] (MIC values were supported by spectrophotometric readings at OD600). DMSO served as our vehicle and negative control in each microdilution MIC assay. DMSO was serially diluted with a top concentration of 1% v/v.
(§2) Each well was inoculated with ˜10^5 bacterial cells at the initial time of incubation, prepared from a fresh log phase culture (OD600 of 0.5 to 1.0 depending on bacterial strain). […] The concentration range tested for each compound during this study was 0.10 to 100 μM. DMSO served as our vehicle and negative control in each microdilution MIC assay. DMSO was serially diluted with a top concentration of 1% v/v. All MIC values were obtained from a minimum of three independent experiments.

[2] = tested on: Acinetobacter baumannii (ATCC 1794); assay: MIC broth microdilution, A. baumannii 1794; type: cell-based; details: for MIC A. baumannii 1794: Table 1A, in µM; for MIC A. bau. 1794: Table 4
Method: (§3) The minimum inhibitory concentration (MIC) for each tested compound was determined by the broth microdilution method as recommended by the Clinical and Laboratory Standards Institute (CLSI). In a 96-well plate, eleven two-fold serial dilutions of each compound were made in a final volume of 100 μL Luria Broth. Each well was inoculated with ˜10^5 bacterial cells at the initial time of incubation, prepared from a fresh log phase culture (OD600 of 0.5 to 1.0 depending on bacterial strain). The MIC was defined as the lowest concentration of compound that prevented bacterial growth after incubating 16 to 18 hours at 37° C. (MIC values were supported by spectrophotometric readings at OD600). DMSO served as our vehicle and negative control in each microdilution MIC assay. DMSO was serially diluted with a top concentration of 1% v/v.
as §3, with “for each compound was” for “for each tested compound was”, “Standards Institute (CLSI).^6 In a” for “Standards Institute (CLSI). In a”, “concentration of test compound that” for “concentration of compound that”, “37° C. The concentration range tested for each compound during this study was 0.10 to 100 μM. DMSO served” for “37° C. (MIC values were supported by spectrophotometric readings at OD600). DMSO served”, “1% v/v. All MIC values were obtained from a minimum of three independent experiments.” for “1% v/v.”

[3] = tested on: vancomycin-resistant Enterococcus faecium (VRE strain ATCC 700221); assay: MIC broth microdilution, VRE 700221; type: cell-based; details: for MIC E. faecium VRE 700221: Table 1A; for MIC VRE 700221: Table 4
Method: as §3
as §3, with “for each compound was” for “for each tested compound was”, “Standards Institute (CLSI).^6 In a” for “Standards Institute (CLSI). In a”, “concentration of test compound that” for “concentration of compound that”, “37° C. The concentration range tested for each compound during this study was 0.10 to 100 μM. DMSO served” for “37° C. (MIC values were supported by spectrophotometric readings at OD600). DMSO served”, “1% v/v. All MIC values were obtained from a minimum of three independent experiments.” for “1% v/v.”

[4] = tested on: SA-138 (clinical isolate); assay: MIC broth microdilution, SA-138; type: cell-based, Staphylococcus aureus
Method: as §1, §2

[5] = tested on: methicillin-resistant Staphylococcus aureus MRSA-2 (clinical isolate); assay: MIC broth microdilution, MRSA-2; type: cell-based
Method: as §3
as §3, with “for each compound was” for “for each tested compound was”, “Standards Institute (CLSI).^6 In a” for “Standards Institute (CLSI). In a”, “concentration of test compound that” for “concentration of compound that”, “37° C. The concentration range tested for each compound during this study was 0.10 to 100 μM. DMSO served” for “37° C. (MIC values were supported by spectrophotometric readings at OD600). DMSO served”, “1% v/v. All MIC values were obtained from a minimum of three independent experiments.” for “1% v/v.”

[6] = tested on: methicillin-sensitive Staphylococcus aureus ATCC 29213; assay: MIC broth microdilution, S. aureus 29213; type: cell-based
Method: as §1, §2

[7] = tested on: Pseudomonas aeruginosa (PAO1); assay: MIC broth microdilution, PAO1; type: cell-based
Method: as §3
as §3, with “for each compound was” for “for each tested compound was”, “Standards Institute (CLSI).^6 In a” for “Standards Institute (CLSI). In a”, “concentration of test compound that” for “concentration of compound that”, “37° C. The concentration range tested for each compound during this study was 0.10 to 100 μM. DMSO served” for “37° C. (MIC values were supported by spectrophotometric readings at OD600). DMSO served”, “1% v/v. All MIC values were obtained from a minimum of three independent experiments.” for “1% v/v.”

[8] = tested on: SA-156 (clinical isolate); assay: MIC broth microdilution, SA-156; type: cell-based, Staphylococcus aureus
Method: as §1, §2

MRSA BAA-44 = assay: MIC broth microdilution, MRSA BAA-44; type: cell-based, Staphylococcus aureus
Method: as §1, §2

[9] = tested on: MRSA-1 (clinical isolate); assay: MIC broth microdilution, MRSA-1; type: cell-based, Staphylococcus aureus
Method: as §1, §2

MRSA BAA-1707 = assay: MIC broth microdilution, MRSA BAA-1707; type: cell-based, Staphylococcus aureus
Method: as §1, §2

[10] = tested on: methicillin-resistant Staphylococcus epidermidis (MRSE strain ATCC 35984); assay: MIC broth microdilution, MRSE 35984; type: cell-based; details: for MIC S. epidermidis MRSE 35984: Table 1A; for MIC MRSE 35984: Table 4
Method: as §3
as §3, with “for each compound was” for “for each tested compound was”, “Standards Institute (CLSI).^6 In a” for “Standards Institute (CLSI). In a”, “concentration of test compound that” for “concentration of compound that”, “37° C. The concentration range tested for each compound during this study was 0.10 to 100 μM. DMSO served” for “37° C. (MIC values were supported by spectrophotometric readings at OD600). DMSO served”, “1% v/v. All MIC values were obtained from a minimum of three independent experiments.” for “1% v/v.”

[11] = tested on: SA-147 (clinical isolate); assay: MIC broth microdilution, SA-147; type: cell-based, Staphylococcus aureus
Method: as §1, §2

[12] = tested on: human red blood cells (hRBC); assay: Hemolysis of red blood cells; type: cell-based
Method: The washing was repeated three times with the buffer. In a 96-well plate, test compounds were added to the buffer from DMSO stocks. […] The plate was then incubated for 1 hour at 37° C. After incubation, the plate was centrifuged for 5 minutes at 3,500 rpm. Then 80 μL of the supernatant was transferred to another 96-well plate and the optical density (OD) was read at 405 nm. DMSO served as our negative control (0% hemolysis) while Triton X served as our positive control (100% hemolysis). […] All reported data correspond to three independent experiments. Ten-point dose-response curves were generated in 96-well plates to determine 50% hemolysis (HC50 values) of red blood cells.
The washing was repeated three times with the buffer. In 96-well plate, the test compounds were added to the buffer. Then 50 μL of 2% of hRBCs in the buffer were added to the test plate to make the final concentrations ranging from 0.2 to 200 μM of each test compound. The plate was then incubated for 1 hour at 37° C. After incubation, the plate was centrifuged for 5 minutes at 3500 rpm and then 80 μL of the supernatant was transferred to another 96-well plate and the Optical Density (OD) was read at 405 nm. DMSO served as our negative control (0% haemolysis) and Triton X served as our positive control (100% haemolysis). The HC50 (concentration of test compound required to lyse red blood cells by 50%) was calculated by plotting the dose-response curve (not shown) with Graphpad Prism 6.0. All data were obtained from three independent haemolysis experiments.

MRSE ATCC 35984 biofilms = assay: Calgary Biofilm Device assay (MBC/MBEC), MRSE 35984; type: cell-based, Staphylococcus epidermidis; details: Table 2A; CBD assay
Method: (§4) The lid of the Calgary device was then removed, washed and transferred to another 96-well plate containing 2-fold serial dilutions of the test compounds (the “challenge plate”). The total volume of media with compound in each well in the challenge plate is 150 μL. […] The lid was then removed from the challenge plate and MBC/MBEC values were determined using different final assays. […] The MBC values were determined as the concentration giving a lack of visible bacterial growth (i.e., turbidity). […] In select experiments, pegs from the Calgary device were removed from lead biofilm eradicators after final incubation, sonicated for 30 minutes in PBS and plated out to determine biofilm cell killing of lead biofilm-eradicating agents (i.e., colony forming unit per milliliter, CFU/mL).
(§5) Using a Calgary Biofilm Device, bacterial biofilms are established on pegs suspended to the bottom of a 96-well plate lid. Following biofilm establishment on lid pegs, lids are then transferred to new 96-well plates containing serial dilutions of test compound and allowed to incubate. After compound treatment, 96-well plate lids with pegs are once again transferred to 96-well plates containing fresh media. During this final phase of the assay, viable biofilms will grow and disperse planktonic cells into the media where they will grow and give a turbid well result. Conversely, wells that have no growth are a result of pegs that had eradicated bacterial biofilms. The lowest concentration at which no turbidity is observed is the minimum biofilm eradication concentration (MBEC). Using the Calgary Biofilm Device, both minimum biofilm eradication concentrations and minimum bactericidal concentrations (MBC) for planktonic bacterial can be determined using one assay from a single bacterial culture (FIG. 3A).

MRSA BAA-1707 biofilms = assay: Calgary Biofilm Device assay (MBC/MBEC), MRSA BAA-1707; type: cell-based, Staphylococcus aureus; details: Table 2A; CBD assay
Method: as §4, §5

MRSA-2 biofilms = assay: Calgary Biofilm Device assay (MBC/MBEC), MRSA-2; type: cell-based, Staphylococcus aureus; details: Table 2A; CBD assay
Method: as §4, §5

VRE ATCC 700221 biofilms = assay: Calgary Biofilm Device assay (MBC/MBEC), VRE 700221; type: cell-based, Enterococcus faecium; details: Table 2A; CBD assay
Method: as §4, §5

Compound: CCCCCCCCCCCCCCCCn1cc[n+](CCCC)c1C.[Br-] [Compound 9]
- MIC ([1]; Table 1B): 1.56 µM
- MIC ([1]; Table 3): 1.56 µM
- MIC A. baumannii 1794 [2]: 12.5
- MIC A. bau. 1794 [2]: 12.5 µM
- MIC E. faecium VRE 700221 [3]: 1.17^a
- MIC VRE 700221 [3]: 1.17a micromolar
- MIC SA-138 ([4]; Table 1B): 1.17^a μM
- MIC SA-138 ([4]; Table 3): 1.17^a μM
- MIC MRSA-2 ([5]; Table 1A): 2.35^a
- MIC MRSA-2 ([5]; Table 1B): 2.35^a μM
- MIC MRSA-2 ([5]; Table 3): 2.35^a μM
- MIC MRSA-2 ([5]; Table 4): 2.35a micromolar
- MIC S. aureus 29213 ([6]; Table 1B): 2.35^a μM
- MIC S. aureus 29213 ([6]; Table 3): 2.35^a μM
- MIC PAO1 ([7]; Table 1A): > 100 µM
- MIC PAO1 ([7]; Table 4): >100 µM
- MIC SA-156 ([8]; Table 1B): 2.35^s μM
- MIC SA-156 ([8]; Table 3): 2.35^a μM
- MIC MRSA BAA-44 (MRSA BAA-44; Table 1B): 2.35^a μM
- MIC MRSA BAA-44 (MRSA BAA-44; Table 3): 2.35^a μM
- MIC ([9]; Table 1B): 1.56 µM
- MIC ([9]; Table 3): 1.56 µM
- MIC MRSA BAA-1707 (MRSA BAA-1707; Table 1B): 2.35^a μM
- MIC MRSA BAA-1707 (MRSA BAA-1707; Table 3): 2.35^a μM
- MIC MRSA 1707 (MRSA BAA-1707; Table 4): 2.35a micromolar
- MIC S. epidermidis MRSE 35984 [10]: 1.17^a
- MIC MRSE 35984 [10]: 1.17a micromolar
- MIC SA-147 ([11]; Table 1B): 1.17^a μM
- MIC SA-147 ([11]; Table 3): 1.17^a μM

Compound: CCCCCCCCCCCCCCCCn1cc[n+](Cc2ccc(F)cc2C(F)(F)F)c1C.[Br-] [Compound 16]
- HC50 ([12]; Table 1A): 10.7 µM
- RBC HC50 ([12]; Table 4, concentration required to lyse 50% of red blood cells): 10.7 µM
- MRSE 35984 MBC (MRSE ATCC 35984 biofilms): 23.5^a/ μM
- MRSE 35984 MBEC (MRSE ATCC 35984 biofilms): 23.5^a μM
- MIC A. baumannii 1794 [2]: >100
- MIC A. bau. 1794 [2]: >100 µM
- MIC E. faecium VRE 700221 [3]: 1.56 µM
- VRE MIC ([3]; Table 2A): 1.56 µM
- MIC VRE 700221 [3]: 1.56 µM
- MIC MRSA-2 ([5]; Table 1A): 3.13 µM
- MRSA-2 MIC ([5]; Table 2A): 3.13 µM
- MIC MRSA-2 ([5]; Table 4): 3.13 µM
- MIC PAO1 ([7]; Table 1A): > 100 µM
- MIC PAO1 ([7]; Table 4): >100 µM
- MRSA BAA-1707 MBC (MRSA BAA-1707 biofilms): 62.5^b/ μM
- MRSA BAA-1707 MBEC (MRSA BAA-1707 biofilms): 93.8^a μM
- MRSA-2 MBC (MRSA-2 biofilms): 62.5/62.5 μM
- MRSA-2 MBEC (MRSA-2 biofilms): 62.5/62.5 μM
- VRE MBC (VRE ATCC 700221 biofilms): 2.0 µM⁻¹
- VRE MBEC (VRE ATCC 700221 biofilms): 3.0^a μM
- MIC S. epidermidis MRSE 35984 [10]: 3.13 µM
- MIC ([10]; Table 2A, read-out: MRSE 35984 MIC): 3.13 µM
- MIC MRSE 35984 [10]: 3.13 µM
